One test deals with T1, human DPP1 (Homo sapiens, UniProt P53634).
T1 construct: was first proteolytically processed into its mature form using recombinant human cathepsin L; purchased R&D Systems
Kind of test: Human DPP1 Enzyme IC50 Assay. Type of test: biochemical. To be noted: activated human DPP1 enzyme, H-Gly-Arg-AMC substrate. The method, then: Recombinant human DPP1 enzyme (R&D Systems; Minneapolis, MN) was first proteolytically processed into its mature form using recombinant human cathepsin L (R&D Systems) in a buffer consisting of 20 mM citric acid pH 4.5, 150 mM NaCl, 1 mM EDTA and 10 mM DTT. Alternatively, a crude lysate of HL-60 cells (ATCC; Manassas, VA) is used as a source of human DPP1 enzyme in the assay. Lysate was prepared in 1% Triton X-100 in PBS at a concentration of 20,000 live cells per μL of lysis buffer and centrifuged at 16,000×g for 10 minutes at 4° C., after which supernatant was collected and flash-frozen in liquid nitrogen.
Test articles were applied to activated human DPP1 enzyme in Assay Buffer (25 mM MES pH 6.0, 50 mM NaCl, 5 mM DTT) in a total reaction volume of 125 μL. 25 μL of compound in Assay Buffer plus 5% DMSO was first added to 50 μL of activated human DPP1 enzyme at a concentration of 1 ng/μL and allowed to pre-incubate for 10 minutes at 37° C. after which 50 μL of 1000 μM H-Gly-Arg-AMC substrate (Bachem; St. Torrance, CA) was added, giving final substrate concentration of 400 μM and a final DMSO concentration of 1%. Substrate cleavage was measured for 90 minutes at 37° C., with fluorescence at Excitation/Emission 350/450 nm measured every 5 minutes. DPP1 concentration was interpolated based on its activity relative to a standard curve of activated human recombinant DPP1 enzyme. IC50 values for each compound were calculated via the XLFit (IDBS Version 5.3.1.3) Add-On to Microsoft Excel using the four parameter fit equation y=(A+ ((B−A)/(1+ ((C/x)^D)))), which appears as equation number 205 (4 Parameter Logistic Model or Sigmoidal Dose-Response Model) in XLFit. Default constraints were used for each Parameter.

The next test has as its target T2, DPP1 in HL-60 cells (Homo sapiens, UniProt P53634).
T2 construct: HL-60 cells (ATCC; host or cells: HL-60
Kind of test: DPP1 Cell IC50 Assay. Type of test: cell-based. To be noted: H-Gly-Phe-AFC substrate. The method, then:
HL-60 cells (ATCC; Manassas, VA) were maintained in RPMI-1640 supplemented with 20% heat-inactivated FBS and 1X Antibiotic Antimycotic (Cytiva; Marlborough, MA). Media was changed every three to four days and cells were not allowed to exceed 1×10^6 cells per mL. Prior to assay, cells were collected by centrifugation at 500 rcf for 3 minutes, resuspended in RPMI and counted. Cells were diluted in RPMI to a concentration of 5×10^5 live cells per mL and transferred to black 96-well plates for assay, 60 μL per well. Test articles were diluted in RPMI plus 0.5% DMSO, and 20 μL was added to each assay well. Compound was allowed to pre-incubate with cells with gentle shaking at 100 rpm for 60 minutes at 37° C. in a cell culture incubator maintained at 5% CO2, after which 20 μL of 500 μM H-Gly-Phe-AFC substrate (MP Biomedicals; Solon, OH) in RPMI was added to each well. Plates were returned to the incubator with shaking at 100 rpm for 30 minutes, after which fluorescence was measured at Excitation/Emission 400/505 nm. Percent (%) Inhibition was calculated from RFU values compared to control cell wells that received only RPMI plus 0.5% DMSO. IC50 values for each compound were calculated via the XLFit (IDBS Version 5.3.1.3) Add-On to Microsoft Excel using the four parameter fit equation y=(A+ ((B−A)/(1+ ((C/x)^D)))), which appears as equation number 205 (4 Parameter Logistic Model or Sigmoidal Dose-Response Model) in XLFit.

The structures appear in SMILES notation.

Usually IC50 stands for the concentration that gives 50% inhibition. A low value points to greater potency in that assay.

T1 sequence (P53634 25-134 limits assumed): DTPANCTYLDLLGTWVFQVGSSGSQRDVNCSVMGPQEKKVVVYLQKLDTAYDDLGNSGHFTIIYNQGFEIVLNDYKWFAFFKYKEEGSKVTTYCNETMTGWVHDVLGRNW
T1 sequence (P53634 231-394 limits assumed): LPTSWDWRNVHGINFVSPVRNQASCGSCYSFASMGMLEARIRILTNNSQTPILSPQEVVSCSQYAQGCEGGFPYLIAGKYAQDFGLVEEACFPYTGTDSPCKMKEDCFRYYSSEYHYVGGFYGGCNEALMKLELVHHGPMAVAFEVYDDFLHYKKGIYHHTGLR
T1 sequence (P53634 395-463 limits assumed): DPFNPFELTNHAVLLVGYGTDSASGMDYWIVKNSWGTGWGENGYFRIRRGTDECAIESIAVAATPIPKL
T2 sequence (P53634 25-463): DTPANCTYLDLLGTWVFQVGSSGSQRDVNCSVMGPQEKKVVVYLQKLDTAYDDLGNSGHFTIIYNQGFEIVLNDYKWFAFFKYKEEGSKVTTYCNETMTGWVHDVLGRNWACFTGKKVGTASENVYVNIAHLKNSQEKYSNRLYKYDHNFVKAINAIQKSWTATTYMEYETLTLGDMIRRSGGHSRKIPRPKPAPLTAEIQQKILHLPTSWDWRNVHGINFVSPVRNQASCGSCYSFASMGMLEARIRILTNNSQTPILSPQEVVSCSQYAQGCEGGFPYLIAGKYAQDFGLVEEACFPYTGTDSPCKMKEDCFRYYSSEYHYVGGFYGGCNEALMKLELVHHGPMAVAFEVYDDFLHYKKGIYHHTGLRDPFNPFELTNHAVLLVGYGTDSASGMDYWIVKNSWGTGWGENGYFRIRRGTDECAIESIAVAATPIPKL

Regarding `Cn1c(=O)oc2ccc(-c3ccc(C[C@@H](C#N)NC(=O)[C@@H]4CNC[C@H](O)CO4)cc3)cc21` (single isomer, unassigned) [INSM-201, (2S,6S*)—N-[(1S)-1-cyano-2-[4-(3-methyl-2-oxo-2,3-dihydro-1,3-benzoxazol-5-yl)phenyl]ethyl]-6-hydroxy-1,4-oxazepane-2-carboxamide], the 50% inhibitory concentration (IC50) at human DPP1 is 2.03 ± 0.2 nM; at DPP1 in HL-60 cells it was 13.4 ± 4.1 nM.
On to `COC1CNC[C@@H](C(=O)N[C@H](C#N)Cc2ccc(-c3ccc4oc(=O)n(C)c4c3)cc2)OC1` (mixture of isomers) [INSM-202, (6-rac)-(2S)—N-[(1S)-1-cyano-2-[4-(3-methyl-2-oxo-2,3-dihydro-1,3-benzoxazol-5-yl)phenyl]ethyl]-6-methoxy-1,4-oxazepane-2-carboxamide], for which the 50% inhibitory concentration (IC50) against human DPP1 was 1.03 ± 0.1 nM; against DPP1 in HL-60 cells, 1.1 ± 0.2 nM.
For `COC1CNC[C@@H](C(=O)N[C@H](C#N)Cc2ccc(-c3ccc4oc(=O)n(C)c4c3)cc2)OC1` (single isomer, unassigned) [INSM-203, (2S,6R*)—N-[(1S)-1-cyano-2-[4-(3-methyl-2-oxo-2,3-dihydro-1,3-benzoxazol-5-yl)phenyl]ethyl]-6-methoxy-1,4-oxazepane-2-carboxamide], in that order: 0.6 ± 0.1 nM and 0.6 ± 0.01 nM.

The values are drawn from US20260242365A1, “USES OF CERTAIN 1,4-OXAZEPANE-2-CARBOXAMIDES AS DPP1 INHIBITORS” (Insmed Incorporated, priority 2023, published 2026).
